Like-named read-outs stand apart in the source and are kept apart here. Some results are limits rather than exact numbers.

The values that follow come from US20110105565A1, “WATER SOLUBLE SMALL MOLECULE INHIBITORS OF THE CYSTIC FIBROSIS TRANSMEMBRANE CONDUCTANCE REGULATOR” (THE REGENTS OF THE UNIVERSITY OF CALIFORNIA, priority 2008, published 2011).

Data set [1] can be described thus: HPLC/MS measurement of inhibitor concentration in urine after subcutaneous administration. In kind it is in vivo, mouse. To be noted: 4 times daily for 3 days, 5 mg/kg/day; for concentration at 1 h: 1 hour after final dosing; for concentration at 5 h: 5 hour after final dosing. How it is done: CFTR inhibitors (5-10 mg/kg/day) or saline DMSO vehicle control (0.05 mL/injection) were administrated by subcutaneous injection on the backs of neonatal mice four times a day for 3 or 7 days using a 1 cc insulin syringe, beginning at age 2 days (11 mice per group). Pkd1^flox/+; Ksp-Cre or Pkd1^flox/+ mice from the same litter were used as controls. During the treatment period, control and Pkd1^flox/−; Ksp-Cre mice, with or without CFTR inhibitor treatment, were indistinguishable in their activity and behavior. Body weight was measured at day 5 (3 days after treatment), at which time there was no difference in body weight in any of the mouse groups. Blood and urine samples were collected for measurements of CFTR inhibitor concentration and renal function. Kidneys were removed and weighed, and fixed for histological examination or homogenized for determination of CFTR inhibitor content.
For high-performance liquid chromatography/mass spectrometry (HPLC/MS) analysis of CFTR inhibitor concentration, kidneys were homogenized in 50-100 μl of PBS for 5 min using an EPPENDORF pellet pestle homogenizer. The homogenate was mixed with an equal volume of chilled acetonitrile to precipitate proteins. After centrifugation at 5000×g for 10 min the supernatant was evaporated under nitrogen, and the residue was dissolved in eluent (50% CH3CN/20 mM NH4OAc). Urine samples were directly diluted 10-fold with eluent. Reversed-phase HPLC separations were carried out using a WATERS C18 column (2.1×100 mm, 2.5 μm particle size) equipped with a solvent delivery system (WATERS model 2690, Milford, Mass.). The solvent system consisted of a linear gradient from 20% CH3CN/20 mM NH4OAc to 95% CH3CN/20 mM NH4OAc, run over 20 min, followed by 5 min at 95% CH3CN/20 mM NH4OAc (0.2 mL/min flow rate). Mass spectra were acquired on an Alliance HT 2790+ZQ mass spectrometer using negative ion detection, scanning from 150 to 1500 Da. The electrospray ion source parameters were: capillary voltage 3.2 kV (negative ion mode) or 3.5 kV (positive ion mode), cone voltage 37 V, source temperature 120° C., desolvation temperature 250° C., cone gas flow 25 L/h, and dessolvation gas flow 350 L/h.
Concentrations were measured to establish dosing to give sustained concentrations in kidney/urine of >1 μM, where CFTR is inhibited. Kidney and urine samples were obtained from mice after 4 times daily subcutaneous administration for 3 days at 5 mg/kg/day, a dose regimen determined from preliminary studies. Urinary concentrations were measured at 1 and 5 hour after the final dosing. For tetrazolo-CFTRinh-172, urine concentrations were 3.3 and 3.6 μM at 1 and 5 hour, respectively. The urine concentrations of Ph-GlyH-101 were 4.3 and 5.8 μM. […] These concentrations are several-fold greater than the IC50 for CFTR inhibition.

Another data set deals with human wildtype CFTR (Homo sapiens, UniProt P13569). Nature of the data set: Short-circuit current measurements, apical chloride current in FRT cells. In kind it is cell-based. More on the design: expressed in transfected cells; host or cells: FRT (Fisher rat thyroid) cells.
Chain of human wildtype CFTR (P13569 whole entry): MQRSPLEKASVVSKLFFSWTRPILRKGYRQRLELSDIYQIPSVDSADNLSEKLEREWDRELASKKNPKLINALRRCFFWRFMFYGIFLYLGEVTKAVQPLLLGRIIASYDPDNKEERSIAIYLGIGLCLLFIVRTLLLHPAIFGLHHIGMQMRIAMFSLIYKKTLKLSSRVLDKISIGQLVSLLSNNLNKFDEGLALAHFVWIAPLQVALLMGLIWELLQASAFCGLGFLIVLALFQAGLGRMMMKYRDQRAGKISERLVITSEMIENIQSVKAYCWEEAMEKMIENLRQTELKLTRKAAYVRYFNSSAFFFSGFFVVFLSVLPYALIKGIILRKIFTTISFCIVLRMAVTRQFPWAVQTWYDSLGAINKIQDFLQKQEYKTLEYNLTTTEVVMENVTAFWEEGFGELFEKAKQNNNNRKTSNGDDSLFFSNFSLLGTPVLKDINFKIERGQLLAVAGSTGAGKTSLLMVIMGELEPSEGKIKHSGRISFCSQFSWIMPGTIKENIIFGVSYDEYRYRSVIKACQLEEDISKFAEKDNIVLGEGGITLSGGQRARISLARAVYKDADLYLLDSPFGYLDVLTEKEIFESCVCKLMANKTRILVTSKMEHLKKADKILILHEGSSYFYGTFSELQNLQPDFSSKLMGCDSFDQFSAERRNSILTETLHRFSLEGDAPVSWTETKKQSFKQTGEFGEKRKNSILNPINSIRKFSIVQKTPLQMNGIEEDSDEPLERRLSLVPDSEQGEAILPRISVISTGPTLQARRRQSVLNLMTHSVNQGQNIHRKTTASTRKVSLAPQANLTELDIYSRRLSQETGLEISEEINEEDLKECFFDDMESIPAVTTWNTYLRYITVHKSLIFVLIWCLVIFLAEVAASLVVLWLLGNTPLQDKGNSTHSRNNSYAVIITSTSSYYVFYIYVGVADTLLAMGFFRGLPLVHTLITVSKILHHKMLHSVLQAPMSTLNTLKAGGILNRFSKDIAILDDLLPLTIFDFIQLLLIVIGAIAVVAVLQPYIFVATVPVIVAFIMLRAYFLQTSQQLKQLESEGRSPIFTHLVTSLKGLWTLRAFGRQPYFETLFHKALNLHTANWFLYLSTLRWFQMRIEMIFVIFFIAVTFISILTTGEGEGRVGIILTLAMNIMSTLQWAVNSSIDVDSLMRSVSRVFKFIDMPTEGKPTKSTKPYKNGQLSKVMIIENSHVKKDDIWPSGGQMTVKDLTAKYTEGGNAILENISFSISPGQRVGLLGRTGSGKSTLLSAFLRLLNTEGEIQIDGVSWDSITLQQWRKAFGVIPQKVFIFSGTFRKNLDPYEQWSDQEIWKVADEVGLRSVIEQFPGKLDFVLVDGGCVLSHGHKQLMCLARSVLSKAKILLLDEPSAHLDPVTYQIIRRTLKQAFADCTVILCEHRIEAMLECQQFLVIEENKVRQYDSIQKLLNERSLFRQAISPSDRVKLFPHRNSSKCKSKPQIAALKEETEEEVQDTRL
The subject of another data set is MDCK cells. The data set can be described thus: MDCK cell cyst model of polycystic kidney disease. The data set is classed as cell-based, Canine. The conditions noted are these: for effect on MDCK cyst enlargement (in words): 1 μM. An excerpt:
An MDCK cell model of polycystic kidney disease was used to screen CFTR inhibitors of the thiazolidinone and glycine hydrazide classes for reducing cyst formation and expansion. […] Culture of MDCK cells in three-dimensional collagen gels produces a polarized, single-layer, thinned epithelium surrounding a fluid-filled space, apical […] microvilli, a solitary cilium, and apical tight junctions (see, e.g., McAteer et al., Scan Elect Microsc (Pt 3): 1135-1150, 1986; McAteer et al., Scanning Microsc 2: 1739-1763, 1988; and Taide et al., Eur J Clin Invest 26: 506-513, 1996).
Type I MDCK cells (ATCC No. CCL-34) were cultured at 37° C. in a humidified 95% air/5% CO2 atmosphere in a 1:1 mixture of Dulbecco's modified Eagle's medium (DMEM) and Ham's F-12 nutrient medium supplemented with 10% fetal bovine serum (Hyclone), 100 U/mL penicillin and 100 μg/mL streptomycin. To generate cysts, four hundred MDCK cells were suspended in 0.4 ml of ice-cold Minimum Essential Medium containing 2.9 mg/mL collagen (PuRECOL, Inamed Biomaterials, Fremont Calif.), 10 mM HEPES, 27 mM NaHCO3, 100 U/mL penicillin and 100 μg/mL streptomycin (pH 7.4). The cell suspension was plated onto 24-well plates. After gelation, 1.5 mL of MDCK cell medium containing 10 μM forskolin was added to each well and plates were maintained at 37° C. in a 5% CO2 humidified atmosphere.
The compound structures together with their approximate CFTR inhibition potencies (expressed as IC50 values) are provided in FIGS. 3 and 4. Indicated IC50 values for T01-07, T10, T12-14 were reported by Ma et al. (J Clin Invest 110: 1651-1658 (2002)). IC50 values for T08, T11, and T16 were determined by short-circuit analysis performed according to methods described herein. Indicated IC50 values for G01-05, G8-16 were reported by Sonawane et al. (FASEB J. 20: 130-132 (2006); Sonawane et al., Gastroenterology 132:1234-44 (2007)). IC50 values for G06 and G07 were determined by short-circuit current analysis performed according to methods described herein.
Medium containing forskolin and test compounds was changed every 12 h. At day 6, cysts (with diameters >50 μm) and non-cyst cell colonies were counted by phase-contrast light microscopy at 20× magnification (546 nm monochromatic illumination) using a Nikon TE 2000-S inverted microscope. In some experiments, compounds were added to medium in the continued presence of forskolin from day 4 after seeding and the medium containing forskolin and compounds was changed every 12 h for 8 days. Micrographs showing the same cysts in collagen gels (identified by markings on plates) were obtained every 2 days. For determination of cyst growth, cyst diameters were measured using Image J software. At least 10 cysts/well and 3 wells/group were measured for each condition.

The mark [2] stands for this setting: values in text, forskolin-stimulated CFTR, read-out: IC50 (short-circuit current).

Description for human wildtype CFTR: Short-circuit current measurements. FRT cells (stably expressing human wildtype CFTR) were cultured on [sequence] filters with 1 cm^2 surface area (Corning-Costar) to resistance >1,000 Ω·cm^2 as described (see, e.g., Ma et al., J. Clin. Invest. 110:1651-1658 ((2002)); Sonawane et al., FASEB J. 20:130-132 (2006)). Filters were mounted in an Easymount Chamber System (Physiologic Instruments, San Diego). For apical current measurements, the basolateral hemichamber contained (in mM): 130 NaCl, 2.7 KCl, 1.5 KH2PO4, 1 CaCl2, 0.5 MgCl2, 10 Na-HEPES, 10 glucose (pH 7.3). The basolateral membrane was permeabilized with amphotericin B (250 μg/ml) for 30 min. In the apical solution 65 mM NaCl was replaced by sodium gluconate, and CaCl2 was increased to 2 mM. Solutions were bubbled with 95% O2/5% CO2 and maintained at 37° C. Current was recorded using a DVC-1000 voltage-clamp (World Precision Instruments) using Ag/AgCl electrodes and 1 M KCl agar bridges.
CFTR was stimulated by cAMP agonist forskolin and increasing concentration of test compounds was added.

`O=C1/C(=C/c2ccc(-c3nn[nH]n3)cc2)SC(=S)N1c1cccc(C(F)(F)F)c1` [Compound 6, (Z)-5-(4-(1H-tetrazol-5-yl)benzylidene)-2-thioxo-3-(3-(trifluoromethyl)phenyl)thiazolidin-4-one]: in data set [1] (C57BL/6, mouse, urine, sc), the concentration at 1 h turned out to be 3.3 µM and the concentration at 5 h came to 3.6 µM. For the same compound, the IC50 on human wildtype CFTR (setting [2]) is 500 to 1000 nM.

For the compound “N-2-naphthalenyl-2-hydroxyethyl-[(3,5-dibromo-2,4-dihydroxyphenyl)methylene]phenylglycinehydrazide [Compound G07]”, the “effect on MDCK cyst enlargement (in words)” value in the data set on MDCK cells is reported as “strongly inhibited cyst enlargement”. Moreover, in data set [1], the concentration at 1 h worked out at 4.3 µM and the concentration at 5 h was determined as 5.8 µM.

With `O=C1/C(=C/c2ccc(-c3nnn[nH]3)cc2)SC(=S)N1c1cccc(C(F)(F)F)c1` [Compound 6, (Z)-5-(4-(1H-tetrazol-5-yl)benzylidene)-2-thioxo-3-(3-(trifluoromethyl)phenyl)thiazolidin-4-one], the “effect on MDCK cyst enlargement (in words)” value in the data set on MDCK cells is listed as “strongly inhibited cyst enlargement”. For the same compound, the “effect on MDCK cyst enlargement/formation (in words)” value in the data set on MDCK cells (10 μM) was “slowed cyst enlargement”. Also, in the data set with MDCK cells (Canis lupus familiaris, MDCK, 10 μM, forskolin 10 μM, cyst diameter, read-out: inhibition of cyst growth), the inhibition at 10 µM was > 70%. For the same compound, the IC50 came to 760 ± 200 nM on human wildtype CFTR (Table 3, inhibition potency, read-out: IC50) and 800 nM at human wildtype CFTR (setting [2]). The “inhibition kinetics (in words)” value against human wildtype CFTR (compared with CFTRinh-172 or Oxo-172, listed as Tetrazolo-172) is “slower inhibition kinetics”. The “inhibition of CFTR in short-circuit current analysis (in words)” value on human wildtype CFTR (increasing concentration, forskolin-stimulated) is reported as “dose dependant inhibition”.

Broadly, the IC50 is the concentration that inhibits the measured activity by half. Broadly, the inhibition is the share of the control response that was lost under treatment.
